{
  "source": "patent US12630516B2",
  "about": "“Compounds” (NRG Therapeutics Ltd., priority 2020, dated 2026)",
  "key": {"[1]": {"test": "PBS and FaSSIF solubility", "type": "physicochemical", "settings": "for solubility at 2 h: FaSSIF, kinetic from dmso stock, Fasted state simulated intestinal fluid, 2 hr at 25° C.", "procedure": "Test compounds were prepared as 10 mM stocks in DMSO and 15 μl samples transferred in duplicate into 1.5 mL glass flat bottom vials (BioTech Solutions). Fasted state simulated intestinal fluid (FaSSIF) or PBS (pH 7.4) was added to each vial to final volume of 500 μl. One PTFE encapsulated stir stick (V&P Scientific) was placed in each vial before sealing with PTFE/SIL plugs (BioTech Solutions). Vials were shaken at 1100 rpm for 2 hr at 25° C. Samples were then filtered through MultiScreen Solvinert filter plates (Millipore) via vacuum filtration. Aliquots of filtrate (5 μl) plus 5 μl DMSO were diluted in 490 μl 50% acetonitrile in water containing internal standard. The filtrate was analysed and quantified against a standard of known concentration using LC-MS/MS. Solubility values of the test compound and control compound were calculated as follows: [Sample]=(Area ratiossample*INJ VOL STD*DFSample*[STD])/(Area ratio STD*INJ VOLSample)."}, "mPTP": {"system": "mPTP", "test": "mPTP activity (Ca2+ retention, Fluo5N FLIPR) assay in isolated rat liver mitochondria", "type": "biochemical", "settings": "average value from multiple experiments (n ≥ 2)", "description": "Pharmacological inhibition or modulation of the mPTP can be measured in well characterised ‘Ca^2+ retention’ assays performed in isolated mitochondria. In vitro, isolated mitochondria rapidly sequester exogenous Ca^2+ until the intramitochondrial Ca^2+ concentration reaches the threshold for mPTP activation. Once the pore is activated, mitochondrial integrity is compromised and the stored Ca^2+ is released. The distribution of Ca^2+ between extra- and intra-mitochondrial compartments can be measured in real time with the use of membrane-impermeant Ca^2+ sensitive fluorescent dyes. Depending on the configuration of the assay, inhibition or modulation of the mPTP either delays the opening of the pore or increases the concentration of Ca^2+ required to induce mPTP opening.\nMPTP activity was measured in mitochondria freshly isolated from female Sprague Dawley (250 to 300 gram) rat livers using the following method. Cervical dislocation was performed on the rat. The liver was then perfused in-situ with ˜40 ml cold Dulbecco's Phosphate Buffered Saline (DPBS) prior to dissection and transferred into 30 ml Isolation Buffer (250 mM Sucrose, 10 mM KCl, 1 mM EGTA, 1 mM EDTA, 25 mM HEPES, adjusted to pH 7.5 with 1M NaOH). Each lobe of the liver was then removed from the buffer, minced using tweezers and a scalpel into ˜5 mm pieces then transferred into a 50 ml Potterton dounce homogenization tube on ice containing 30 ml ice-cold centrifugation buffer (300 mM Trehalose, 25 mM HEPES, 1 mM EGTA, 1 mM EDTA, 10 mM KCl, adjusted to pH 7.5 with 1M NaOH and supplemented with 0.1% bovine serum albumin (BSA) and complete protease inhibitor cocktail (one tablet of inhibitor per 50 mls of buffer). Homogenisation was carried out using a teflon pestle at 1800 rpm. The slurry was centrifuged at 800 g for 10 min at 4° C., then the supernatant centrifuged at 10,000 g for 10 min. The pellet was washed once with FLIPR assay buffer (75 mM Mannitol, 25 mM Sucrose, 5 mM Potassium Phosphate Monobasic, 20 mM Tr is base, 100 mM KCl, 0.1% BSA adjusted to pH 7.4 with 5M HCl) centrifuged again, then resuspended in FLIPR assay buffer to a concentration of 8.8 mg/ml protein.\nTested compounds (10 mM stock in DMSO) were serially diluted in DMSO in half log steps to generate 10 test concentrations (final concentrations in assay 30 μM to 1 nM). An intermediate dilution of 5 μl DMSO samples into 247 μl FLIPR assay buffer was carried out prior to transfer of 5 μl into duplicate wells of a 384 well polypropylene assay plate. Control wells were 0.5% (v/v) DMSO and 5 μM cyclosporin A.\nA stock mitochondria/Fluo5N assay solution was prepared in 5.6 ml FLIPR assay buffer (at RT) supplemented with succinate disodium salt (10 mM), rotenone (1 μM), Fluo5N pentapotassium salt (2 μM) and 1 ml mitochondria suspension, then transferred (15 μl) into the assay plate containing test compounds and incubated for 10 min at RT. Assay plates were then transferred to a FLIPR Tetra plate reader (Molecular Devices). Dye fluorescence was then measured every 3 sec for a total of 10 min. After 12 sec, a 2.5 μl bolus of CaCl2 (75 μM) was added from a source plate containing 675 μM CaCl2 in FLIPR assay buffer. IC50 values for tested compounds were calculated using the fluorescence value collected at the 10 min timepoint with % inhibition calculated using the DMSO control and cyclosporin A values as […] respectively."}, "[2]": {"test": "Hepatocyte clearance assay, primary rat hepatocytes", "type": "in vitro ADME", "settings": "average value from two experiments", "procedure": "(§1) In vitro clearance studies were performed in primary rat and human hepatocytes (BioIVT). Vials of cryopreserved rat or human hepatocytes were thawed in a 37° C. water bath for 2 min. Cells were transferred into thawing medium (Williams' Medium E containing 30% Percoll, 1×GlutaMAX-1, 15 mM HEPES, 5% fetal bovine serum (FBS), 4 μg/ml insulin, 1 μM dexamethasone), centrifuged at 100 g for 10 min then resuspended in culture medium (Leibovitz's L-15 Medium) at a concentration of 0.5×10^6 viable cells/mL (number of viable cells assessed using AO/PI staining). Hepatocytes (198 μL) were transferred into wells of a 96-well non-coated plate and placed in a 37° C. incubator for 10 min. Test compound solutions were prepared from 10 mM stocks in DMSO, diluted to 100 μM in 50% (v/v in water) acetonitrile. Test compound samples (2 μl) were added to each well of hepatocytes and incubated at 37° C. […] Peak areas were determined from extracted ion chromatograms. The slope value, k, was determined by linear regression of the natural logarithm of the remaining percentage of the parent drug vs. incubation time curve. The in vitro half-life (in vitro t½) was determined from the slope value: in vitro t½=0.693/k. […]"}, "[3]": {"test": "Hepatocyte clearance assay, primary human hepatocytes", "type": "in vitro ADME", "settings": "average value from two experiments", "procedure": "as §1"}},
  "data": [
    {"smiles": "Cc1c(F)cccc1NC(=O)/C=C/c1ccc2oc(=O)[nH]c2c1", "note": "[Example 6, (E)-N-(3-fluoro-2-methylphenyl)-3-(2-oxo-2,3-dihydrobenzo[d]oxazol-5-yl)acrylamide]", "values": [
      {"measurement": "solubility at 2 h", "setting": "[1]", "result": 18, "unit": "µM"}
    ]},
    {"smiles": "Cc1n[nH]c2cc(/C=C/C(=O)N[C@@H]3CCCC[C@H]3C)ccc12", "note": "(racemic) [Example 43, Racemic-(E)-3-(3-methyl-1H-indazol-6-yl)-N-((1R,2R)-2-methylcyclohexyl)acrylamide]", "values": [
      {"measurement": "mPTP Rat liver pIC50", "setting": "mPTP", "result": 6.3}
    ]},
    {"smiles": "O=C(/C=C/c1cc2[nH]nnc2cc1F)NC1CCc2ccccc21", "note": "(stereo not drawn) [Example 27, (E)-N-(2,3-dihydro-1H-inden-1-yl)-3-(5-fluoro-1H-benzo[d][1,2,3]triazol-6-yl) acrylamide]", "values": [
      {"measurement": "mPTP Rat liver pIC50", "setting": "mPTP", "result": 6.6}
    ]},
    {"smiles": "Cc1n[nH]c2cc(/C=C/C(=O)N[C@H]3c4ccccc4OC[C@@H]3C)ccc12", "note": "(single isomer, unassigned) [Example 65c]", "values": [
      {"measurement": "mPTP Rat liver pIC50", "setting": "mPTP", "result": 7.7},
      {"measurement": "solubility at 2 h", "setting": "[1]", "result": 9.2, "unit": "µM"},
      {"measurement": "hepatocyte CLint at 1 µM", "setting": "[2]; primary rat hepatocytes (cryopreserved), read-out: Rat heps Clint uL/min/10^6 cells", "result": 37.9, "unit": "µL/min/1e6 cells"},
      {"measurement": "hepatocyte CLint at 1 µM", "setting": "[3]; primary human hepatocytes (cryopreserved), read-out: Human heps Clint uL/min/10^6 cells", "result": 9.4, "unit": "µL/min/1e6 cells"}
    ]},
    {"smiles": "O=C(/C=C/c1ccc2c(C(F)(F)F)n[nH]c2c1)NC1CCc2ccccc21", "note": "(stereo not drawn) [Example 28, (E)-N-(2,3-dihydro-1H-inden-1-yl)-3-(3-(trifluoromethyl)-1H-indazol-6-yl) acrylamide]", "values": [
      {"measurement": "mPTP Rat liver pIC50", "setting": "mPTP", "result": 6.7}
    ]},
    {"smiles": "Cc1c(F)cccc1NC(=O)/C=C/c1ccc2cn[nH]c2c1", "note": "[Comparative Example 1, (E)-N-(2-methyl-3-fluorophenyl)-3-(1H-indazol-6-yl)acrylamide, reference compound]", "values": [
      {"measurement": "Solubility PBS uM (pH 7.4)", "setting": "[1]; PBS pH 7.4, 2 hr at 25° C.", "result": 0.9, "unit": "uM"},
      {"measurement": "Rat heps Clint uL/min/10^6 cells", "setting": "[2]", "result": 89, "unit": "uL/min/10^6 cells"},
      {"measurement": "Human heps Clint uL/min/10^6 cells", "setting": "[3]", "result": 13, "unit": "uL/min/10^6 cells"}
    ]},
    {"smiles": "CO[C@H]1Cc2ccccc2[C@@H]1NC(=O)/C=C/c1ccc2c(Cl)n[nH]c2c1", "note": "[Example 72, (E)-3-(3-chloro-1H-indazol-6-yl)-N-((1S,2S)-2-methoxy-2,3-dihydro-1H-inden-1-yl)acrylamide]", "values": [
      {"measurement": "mPTP Rat liver pIC50", "setting": "mPTP", "result": 8.2}
    ]}
  ]
}
